The text below walks through data of US20190284168A1, “PYRAZOLE DERIVATIES AS SGC STIMULATORS” (IRONWOOD PHARMACEUTICALS, INC., priority 2014, published 2019).

The subject of one data set is obese mice. To be noted: cited from earlier work.
Another data set has as its system NO-defficient rats. To be noted: NO-deficient rats; cited from earlier work.
The target of data set [1] is T1, soluble guanylate cyclase (sGC) (Homo sapiens, UniProt Q02108+Q02153).
T1 construct: endogenously expressing soluble guanylate cyclase (sGC); endogenous in cells; host or cells: HEK293
T1 sequence (Q02153 1-619): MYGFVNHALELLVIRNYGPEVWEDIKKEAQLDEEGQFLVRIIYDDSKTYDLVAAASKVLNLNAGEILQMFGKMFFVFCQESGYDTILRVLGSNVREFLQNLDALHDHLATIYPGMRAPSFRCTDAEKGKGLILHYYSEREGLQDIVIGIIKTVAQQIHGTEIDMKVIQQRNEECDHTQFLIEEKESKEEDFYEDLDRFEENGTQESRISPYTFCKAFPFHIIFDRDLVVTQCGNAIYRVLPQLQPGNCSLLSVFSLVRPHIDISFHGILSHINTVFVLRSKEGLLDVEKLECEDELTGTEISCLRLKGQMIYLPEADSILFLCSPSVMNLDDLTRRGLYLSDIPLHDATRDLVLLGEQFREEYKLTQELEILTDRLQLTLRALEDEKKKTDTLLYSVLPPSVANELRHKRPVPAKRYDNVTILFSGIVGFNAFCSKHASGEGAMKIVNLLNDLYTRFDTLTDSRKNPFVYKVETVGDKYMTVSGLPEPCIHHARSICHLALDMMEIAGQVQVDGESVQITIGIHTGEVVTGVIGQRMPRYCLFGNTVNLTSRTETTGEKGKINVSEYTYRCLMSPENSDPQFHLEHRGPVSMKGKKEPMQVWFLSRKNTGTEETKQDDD
T1 sequence (Q02108 1-690): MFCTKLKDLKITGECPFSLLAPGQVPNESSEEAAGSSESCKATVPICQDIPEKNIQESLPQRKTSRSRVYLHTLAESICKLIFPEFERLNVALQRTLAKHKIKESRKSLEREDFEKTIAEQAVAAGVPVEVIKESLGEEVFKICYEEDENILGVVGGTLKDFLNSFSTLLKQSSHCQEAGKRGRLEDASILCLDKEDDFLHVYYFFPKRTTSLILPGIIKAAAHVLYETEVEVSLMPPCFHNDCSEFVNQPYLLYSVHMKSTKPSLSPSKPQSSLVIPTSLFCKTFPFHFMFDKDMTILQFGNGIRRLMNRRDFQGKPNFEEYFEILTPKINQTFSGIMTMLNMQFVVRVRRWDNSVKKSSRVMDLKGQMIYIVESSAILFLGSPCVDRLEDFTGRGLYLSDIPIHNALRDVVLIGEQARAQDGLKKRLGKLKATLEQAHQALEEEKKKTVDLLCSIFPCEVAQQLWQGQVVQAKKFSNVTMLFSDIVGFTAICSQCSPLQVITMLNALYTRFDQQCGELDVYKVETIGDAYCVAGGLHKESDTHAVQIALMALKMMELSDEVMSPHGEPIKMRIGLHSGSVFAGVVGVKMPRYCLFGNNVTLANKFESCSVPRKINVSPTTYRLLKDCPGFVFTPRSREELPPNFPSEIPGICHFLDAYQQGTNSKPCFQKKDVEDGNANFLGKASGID
As to the kind of experiment: sGC-HEK-cGMP assay with LC/MS detection. The class given is cell-based. To be noted: HEK293 whole cells, LC/MS detection of cGMP, 10 μM DETA-NONOate; 50% of high control response (30 μM Compound Y); read-out: Absolute EC50 (nM)- binned (~).

A further data set has as its system Sprague-Dawley Rats. As to the kind of experiment: Blood pressure change in Sprague-Dawley rats. To be noted: 10 mpk PO, conscious Sprague-Dawley rats. The data set is classed as in vivo, rat. The procedure: Male rats (250-350 g body weight, supplied by Harlan Laboratories) were anesthetized with ketamine/xylazine and a heparinized saline fluid filled catheter implanted into the right femoral artery. The catheter was exteriorized between the scapula, capped, and the animal allowed to recover for at least 7 days post surgery prior to any compound testing. Prior to testing animals were maintained on normal diet, with free access to drinking water, under a 12 hour light-dark cycle.
On the day of experimentation, under inhaled isoflurane anesthesia, the catheter was uncapped and connected to a tether (Instech Labs) and pressure transducer (Harvard Apparatus). Blood pressure and heart rate were subsequently captured and analyzed with a dedicated data capture system (PowerLab, ADInstruments). Data sampling rates were set at 1 cycle per second. Once connected, each rat was allowed to recover from anesthesia and baseline blood pressure and heart rate levels were established in these conscious, freely-moving animals. Once baseline was established either vehicle (0.5% methylcellulose or 100% PEG400) or test article was administered orally (PO, 10 mg/kg) and the effects on blood pressure and heart rate monitored for up to 24 hours.
Data are reported as hourly averages and changes in blood pressure are calculated from subtracting individual baseline on an hourly basis (Table 4)

Data set [2] concerns Guinea pig tracheal smooth muscle. As to the kind of experiment: Electrical field stimulated guinea pig tracheal smooth muscle contraction. The settings on record: guinea pig tracheal strips, sub-maximal EFS; 95% CI 0.78-0.94; read-out: IC50, inhibition of EFS-induced tracheal smooth muscle contraction. From the text:
It is possible to assess the bronchodilating effects of sGC stimulators by using the system described below. This system allows us to determine potency, efficacy and duration of action of several sGC stimulators, as well as to assess potential side effects such as blood pressure, or heart rate changes.
Animals: Guinea pig, Dunkin Hartley, male, Full barrier-bred and certified free of specific micro-organisms on receipt 525-609 g on the experimental day, Harlan UK Ltd. Guinea pigs are housed in a group of 4 in solid-bottomed cages with Gold Flake bedding in a controlled environment (airflow, temperature and humidity). Food (FD1, Special Diet Services) and water are provided ad libitum.
On each experimental day, a guinea pig is killed by exposure to a rising concentration of CO2 and the trachea removed. […] Tissues are washed with Kreb's buffer and stimulated using the previously determined sub-maximal voltage for 1 hour to establish a stable baseline contraction prior to assessment of compound activity.
A cumulative dose response curve (DRC) to each test substance is then performed and changes in smooth muscle contraction measured. The effect of each test substance in each experiment is expressed as a percentage inhibition of the baseline contraction, normalized to the relevant vehicle controls. […]

For a further data set, the system named is sickle mice. To be noted: oral, high doses; cited from earlier work.
For another data set, the system named is mdx mouse. To be noted: cited from earlier work.
Data set [3] has as its system sickle cell disease patients with severe PHT. The settings on record: cited from earlier work.
For data set [4], the system named is adult sickle cell disease patients. To be noted: infusions; cited from earlier work.
For data set [5], the system named is adult patients with sickle cell disease. The settings on record: acute VOE, vs placebo; cited from earlier work.

Consider `O=C(O)CCCCN(CCc1cc(F)ccc1OCc1ccc(-c2ccc(C(F)(F)F)cc2)cc1)Cc1ccc(C(=O)O)cc1` [BAY 60-2770], for which the overactive bladder result in the data set on obese mice was “ameliorates overactive bladder”.

As for `Nc1nc(-c2nn(Cc3ccccc3F)c3ncccc23)ncc1C1CC1` [BAY-2272], the bladder dysfunction entry in the data set with NO-defficient rats is reported as “protective effects”.

On to `Fc1cnc(-c2cc(-c3ccon3)n(Cc3ccccc3F)n2)nc1` [Compound 109], for which, in [1], the EC50 lay within 100 to 1000 nM. In addition, in the data set with Sprague-Dawley Rats, the “Rat Mean Arterial Pressure peak change from baseline (at 3 or 10 mpk@)” value was “B (B = −20 ≤ peak change from baseline at 3 or 10 mpk ≤ −10)”.

With `CC(C)[N+]1(C)[C@@H]2CC[C@H]1CC(OC(=O)C(CO)c1ccccc1)C2` (some centres unmarked) [Ipratropium bromide, ipratropium bromide], the concentration for half-maximal inhibition (IC50) in data set [2] was found to be 0.86 nM.

Regarding `N=C(N)NCCC[C@H](N)C(=O)O` [L-arginine, arginine], in the data set on sickle mice, the “Gardos channel activity, dense cell formation and hemolysis” value was “decrease Gardos channel activity, dense cell formation and hemolysis”.

Consider `CCCc1nn(C)c2c(=O)[nH]c(-c3cc(S(=O)(=O)N4CCN(C)CC4)ccc3OCC)nc12` [sildenafil, Sildenafil], for which the “muscle ischemia, injury and fatigue after a brief bout of exercise” value in the data set on mdx mouse was “alleviate muscle ischemia, as well as injury and fatigue”. Besides, in data set [3] (Walk-PHaSST multicenter trial, stopped prematurely), the “serious side effects (VOE, headache, visual disturbance)” value is reported as “higher frequency of serious side effects”. For the same compound, the “PAP and exercise capacity” value in [3] (sickle cell disease patients with severe PHT) was “improvements in PAP and exercise capacity”.

As for `O=NO` [sodium nitrite], the forearm blood flow result in data set [4] is “enhanced forearm blood flow”.

Consider nitric oxide [inhaled NO], for which the pain scores result in [5] is “significantly reduced pain scores”.
